One assay concerns HBV-DNA in the serum. Put plainly: Quantification of HBV-DNA in the serum by TaqMan PCR, patient under lamivudine treatment. The settings on record: one month before administration 2.4 × 10^6. It counts as in vivo. As for the experimental part: (§1) In order to isolate the HBV gene in Dane particles (the infective HBV particle: the complete HBV particle), the HBV gene in a serum from a HBV patient was purified using High Pure Viral Nucleic Acid kit (Roche Diagnostics) in the following method. One hundred μl of the serum from a HBV patient who received lamivudine treatment was mixed with 100 μl of the serum from a normal healthy subject to prepare 200 μl of a serum sample. To the serum sample, 200 μl of a working solution {50 μl of poly(A) carrier RNA (4 mg/ml) and 2.5 ml of the binding buffer [6 M guanidine-HCl, 10 mM urea, 10 mM Tris-HCl (pH 4.4), 20% Triton X-100 (v/v)]} and 50 μl of Proteinase K (18 mg/ml) were added and mixed, and incubated at 72° C. for 10 minutes.
(§2) One hundred μl of isopropanol and the sample were mixed, and the mixture was transferred into a High Pure filter tube. It was centrifuged at 8000 rpm for 1 minute, and after discarding the flowthrough, 500 μl of the inhibitor removal buffer [5 M guanidine-HCl, 20 mM Tris-HCl (pH 6.6)] was injected and then centrifuged at 8000 rpm for 1 minute. After adding 450 μl of the washing buffer [20 mM NaCl, 2 mM Tris-HCl (pH 7.5)], it was centrifuged at 8000 rpm for 1 minute. Then it was washed again in 450 μl of the washing buffer and was centrifuged at 13000 rpm for 10 seconds. Fifty μl of sterile water was added to the filter tube, which was centrifuged at 8000 rpm for 1 minute, and the flowthrough was collected to prepare a solution of the HBV gene in the serum.
The quantification of HBV-DNA in the serum was performed by the TaqMan PCR method that employs the Light Cycler (Roche Diagnostics). […]
The condition included pretreatment at 95° C. for 10 minutes, DNA denaturation at 95° C. for 5 seconds, annealing at 60° C. for 15 seconds and DNA synthesis at 72° C. for 8 seconds, and fluorescence emitted from the TaqMan probe was measured to quantify the amount of HBV-DNA in the serum (Table 1).
Background: Quantitative PCR measures a nucleic acid by following its amplification.

Assay [1] concerns HBV gene (HBV-DNA and RNA) in the serum. Put plainly: Quantification of the HBV gene (DNA+RNA) in the serum by reverse transcription plus TaqMan PCR. The settings on record: one month before administration 7.8 × 10^6. The class given is in vivo, HBV patient. As to the method: as §1, §2
In order to measure the amount of HBV gene in the serum, the step of the reverse transcriptase reaction was added. To 10 μl of the HBV gene solution, 1 μl of 20 mM dNTP Mix (10 mM dATP, 10 mM dGTP, 10 mM dCTP, 10 mM dTTP) and 0.2 μl of 10 μM HBS-R primer were mixed, and after incubated at 65° C. for 5 minutes, it was quickly cooled on ice. […]
By applying 4 μl of this reaction mixture to the above HBV-DNA quantification system, the amount of the HBV gene in the serum, i.e. the total amount of HBV-DNA and RNA in the serum, can be measured. […]

The test system of another assay is HBV-RNA in the serum. Put plainly: Amount of HBV-RNA in the serum, estimated by subtracting HBV-DNA from HBV gene. The class given is in vivo, HBV patient. The settings on record: one month before administration 5.4 × 10^6. As for the experimental part:
In order to measure the amount of HBV gene in the serum, the step of the reverse transcriptase reaction was added. To 10 μl of the HBV gene solution, 1 μl of 20 mM dNTP Mix (10 mM dATP, 10 mM dGTP, 10 mM dCTP, 10 mM dTTP) and 0.2 μl of 10 μM HBS-R primer were mixed, and after incubated at 65° C. for 5 minutes, it was quickly cooled on ice. Four μl of 5× reverse transcription buffer [250 mM Tris-HCl (pH 8.3), 375 mM KCl, 15 mM MgCl2], 0.2 μl of 0.1 M DTT, 0.6 μl of RNase inhibitor (40 units/μl) and 3 μl of sterile water were mixed and then subjected to an annealing reaction at 42° C. for 2 minutes, to which 1 μl of the reverse transcriptase (200 units/μl) was added to prepare a 20 μl of a reaction mixture, which was subjected to a reverse transcription reaction at 42° C. for 50 minutes and the inactivation of the reverse transcriptase was performed at 70° C. for 15 minutes.
By applying 4 μl of this reaction mixture to the above HBV-DNA quantification system, the amount of the HBV gene in the serum, i.e. the total amount of HBV-DNA and RNA in the serum, can be measured. Also, by subtracting the amount of HBV-DNA from the amount of the HBV gene, the amount of HBV-RNA in the serum can be estimated (Table 1).

A further assay concerns HBc antigen. Put plainly: Measurement of the amount of HBc antigen (sandwich immunoassay, luminescence). It counts as in vivo, HBV patient. To be noted: serum, before administration 610. An excerpt: Three monoclonal antibodies HB44 (recognition site: amino acids 31-49), HB61 (recognition site: amino acids 131-140) and HB114 (recognition site: amino acids 1-81) that react both HBc antigen and HBe antigen were coated and immobilized to a microtiter plate. After washing with PBS, it was blocked with a solution containing casein and, after removing the solution, it was dried.
Fifty μl of the pretreatment solution (15% sodium dodecyl sulfate [SDS], 3% CHAPS, 1% hexadecyltrimethyl ammonium bromide) was mixed with 100 μl of the sample (serum, plasma etc.) and treated at 70° C. for 30 minutes.
To each antibody-immobilized well, 100 μl of the reaction buffer (pH 8.0) and 50 μl of the pretreated sample were added, and the plate was reacted under gentle stirring at room temperature for 2 hours.
After washing the wells, 100 μl of a solution containing alkaline phosphatase-labelled HB50 (recognition site: amino acids 168-176) monoclonal antibody was added to each well, and the plate was incubated at room temperature for 1 hour.
After washing the wells, 100 μl of the CDP Star with Emerald II (Applied Biosystems) was added, and the intensity of luminescence after reacting at room temperature for 20 minutes was measured using a microtiter plate luminometer. It was compared to the intensity of luminescence of the standard antigen and the concentration of HBc antigen in the sample was calculated (Table 1).

The structures appear in SMILES notation.

As to `Nc1ccn([C@@H]2CS[C@H](CO)O2)c(=O)n1` [lamivudine], the “Amount of HBV-DNA” value in the assay on HBV-DNA in the serum (8 months after administration) was 1.0 × 10^2 copies/ml; in the assay on HBV-DNA in the serum (19 months after administration) it was 0 copies/ml; in the assay on HBV-DNA in the serum (one month after administration of lamivudine) it was 6.1×10^3 copies/ml. The entries for the “Amount of HBV gene” value in assay [1] (8 months after administration), in assay [1] (19 months after administration) and in assay [1] (one month after administration) were 7.2 × 10^3 copies/ml, 2.2 × 10^3 copies/ml and 1.1 × 10^5 copies/ml, respectively. Moreover, the “Amount of HBV-RNA” value in the assay with HBV-RNA in the serum (8 months after administration) was 7.1 × 10^3 copies/ml; with HBV-RNA in the serum (19 months after administration) it was 2.2 × 10^3 copies/ml; with HBV-RNA in the serum (one month after administration) it was 1.0×10^5 copies/ml. Moreover, the “Amount of HBc antigen” value amounted to 21 pg/mL in the assay with HBc antigen (8 months after administration), 20 pg/mL in the assay with HBc antigen (19 months after administration) and 56 pg/mL in the assay on HBc antigen (one month after administration).

The values above are taken from patent US20070264646A1, “Hbv Particles Containing Hbv-Rna” (Advanced Life Science Institute, Inc., priority 2003, published 2007).
